# How the values were obtained:
# [1] = target: Cytochrome P450 2D6 (Homo sapiens, UniProt P10635); assay: Inhibition of CYP2D6 (unknown origin); format: ADME
# [2] = target: T1, 5-hydroxytryptamine receptor 2A (Homo sapiens, UniProt P28223); assay: Inverse agonist activity at 5-HT2A receptor (unknown origin) expressed in mouse NIH3T3 cells using o-nitrophenyl-D-galacto pyranoside incubated for 120 hrs; format: functional, cell-based
# [3] = target: T1, 5-hydroxytryptamine receptor 2A; assay: Displacement of [3H]-Ketanserin from human 5-HT2A receptor at 50 nM incubated for 1 hr by microbeta scintillation counter analysis
# [4] = Genotoxicity in Salmonella typhimurium TA1535 in absence of rat liver S9 fraction by Ames test; format: toxicity; settings: salmonella enterica subsp. enterica serovar typhimurium
# [5] = Genotoxicity in Salmonella typhimurium TA102 in absence of rat liver S9 fraction by Ames test; format: toxicity; settings: salmonella enterica subsp. enterica serovar typhimurium
# [6] = Plasma protein binding in monkey at 10 uM; format: ADME, cell-free, Macaca mulatta; settings: rhesus monkey, read-out: PPB (converted)
# [7] = Drug distribution in Sprague-Dawley rat brain at 6 micromol/kg administered via gavage measured after 6 hrs by LC-MS/MS analysis; format: ADME, tissue-based; settings: in vivo, po, dose 6 µmol/kg
# [8] = Metabolic stability in Sprague-Dawley rat liver microsomes assessed as intrinsic clearance at 100 uM preincubated for 10 mins followed by NADPH addition by LC/MS analysis; format: ADME, Microsome; settings: read-out: CLH
# [9] = Metabolic stability in human liver microsomes assessed as half life at 100 uM preincubated for 10 mins followed by NADPH addition by LC/MS analysis; format: ADME, Microsome
# [10] = Plasma protein binding in human at 10 uM; format: ADME, cell-free; settings: read-out: PPB (converted)
# [11] = Genotoxicity in Salmonella typhimurium TA97 in presence of rat liver S9 fraction by Ames test; format: toxicity, subcellular; settings: salmonella enterica subsp. enterica serovar typhimurium
# [12] = Genotoxicity in Salmonella typhimurium TA98 in presence of rat liver S9 fraction by Ames test; format: toxicity, subcellular; settings: salmonella enterica subsp. enterica serovar typhimurium
# [13] = Genotoxicity in Salmonella typhimurium TA97 in absence of rat liver S9 fraction by Ames test; format: toxicity; settings: salmonella enterica subsp. enterica serovar typhimurium
# [14] = target: T2, Cytochrome P450 1A2 (Homo sapiens, UniProt P05177); assay: Inhibition of CYP1A2 (unknown origin); format: ADME
# T2 sequence (P05177 whole entry): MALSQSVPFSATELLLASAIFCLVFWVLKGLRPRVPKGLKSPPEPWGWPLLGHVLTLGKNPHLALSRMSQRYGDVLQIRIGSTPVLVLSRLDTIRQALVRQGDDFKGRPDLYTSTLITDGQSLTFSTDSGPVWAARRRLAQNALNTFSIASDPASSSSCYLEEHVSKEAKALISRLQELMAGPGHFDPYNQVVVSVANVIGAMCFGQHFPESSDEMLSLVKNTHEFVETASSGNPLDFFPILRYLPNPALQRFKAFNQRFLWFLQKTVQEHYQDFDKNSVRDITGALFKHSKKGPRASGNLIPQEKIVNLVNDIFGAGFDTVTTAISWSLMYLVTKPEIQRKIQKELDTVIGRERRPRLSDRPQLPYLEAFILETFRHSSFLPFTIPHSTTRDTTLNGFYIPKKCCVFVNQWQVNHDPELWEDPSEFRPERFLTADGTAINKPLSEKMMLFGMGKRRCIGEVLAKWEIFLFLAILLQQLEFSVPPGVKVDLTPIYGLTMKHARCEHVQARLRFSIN
# [15] = target: Voltage-gated inwardly rectifying potassium channel KCNH2 (Homo sapiens, UniProt Q12809); assay: Inhibition of hERG potassium channel expressed in CHO cells at -80 mV holding potential by whole cell patch clamp assay; format: toxicity, cell-based
# Voltage-gated inwardly rectifying potassium channel KCNH2, sequence (Q12809 whole entry): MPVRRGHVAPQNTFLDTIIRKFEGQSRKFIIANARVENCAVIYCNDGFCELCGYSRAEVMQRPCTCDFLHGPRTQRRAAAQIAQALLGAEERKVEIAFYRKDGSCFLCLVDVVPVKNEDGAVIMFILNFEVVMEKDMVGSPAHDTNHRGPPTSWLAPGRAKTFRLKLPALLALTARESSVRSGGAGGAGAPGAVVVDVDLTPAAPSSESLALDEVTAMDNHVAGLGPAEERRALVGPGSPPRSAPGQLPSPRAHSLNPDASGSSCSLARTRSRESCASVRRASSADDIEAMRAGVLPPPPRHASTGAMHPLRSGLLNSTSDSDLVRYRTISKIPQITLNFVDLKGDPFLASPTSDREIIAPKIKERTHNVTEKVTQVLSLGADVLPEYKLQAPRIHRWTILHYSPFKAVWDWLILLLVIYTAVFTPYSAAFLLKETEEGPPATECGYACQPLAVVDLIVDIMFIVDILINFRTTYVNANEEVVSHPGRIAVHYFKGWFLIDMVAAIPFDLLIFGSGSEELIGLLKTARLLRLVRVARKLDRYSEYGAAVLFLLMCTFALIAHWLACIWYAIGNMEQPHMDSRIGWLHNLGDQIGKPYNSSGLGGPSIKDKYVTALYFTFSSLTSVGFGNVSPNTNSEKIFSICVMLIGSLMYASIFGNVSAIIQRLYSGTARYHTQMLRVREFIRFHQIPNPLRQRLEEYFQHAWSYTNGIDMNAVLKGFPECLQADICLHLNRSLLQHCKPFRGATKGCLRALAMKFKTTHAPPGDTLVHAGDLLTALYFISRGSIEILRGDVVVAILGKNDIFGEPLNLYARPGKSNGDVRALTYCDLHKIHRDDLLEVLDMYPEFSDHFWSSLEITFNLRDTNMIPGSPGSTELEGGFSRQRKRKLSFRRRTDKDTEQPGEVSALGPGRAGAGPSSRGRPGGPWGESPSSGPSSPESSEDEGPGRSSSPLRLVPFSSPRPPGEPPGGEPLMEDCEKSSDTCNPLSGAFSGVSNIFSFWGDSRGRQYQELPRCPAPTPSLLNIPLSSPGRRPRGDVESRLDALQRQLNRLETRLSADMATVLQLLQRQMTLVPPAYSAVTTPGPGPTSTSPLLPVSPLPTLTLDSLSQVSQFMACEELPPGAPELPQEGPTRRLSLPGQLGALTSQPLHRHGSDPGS
# [16] = Toxicity in Sprague-Dawley rat assessed as animal death at 20 to 60 mg/kg, po administered daily via gavage measured for 7 days; format: organism-based; settings: in vivo, 168 h, dose 20-60 mg/kg, time 7 day
# [17] = target: Cytochrome P450 3A4 (Homo sapiens, UniProt P08684); assay: Inhibition of CYP3A4 (unknown origin); format: ADME
# Cytochrome P450 3A4, sequence (P08684 whole entry): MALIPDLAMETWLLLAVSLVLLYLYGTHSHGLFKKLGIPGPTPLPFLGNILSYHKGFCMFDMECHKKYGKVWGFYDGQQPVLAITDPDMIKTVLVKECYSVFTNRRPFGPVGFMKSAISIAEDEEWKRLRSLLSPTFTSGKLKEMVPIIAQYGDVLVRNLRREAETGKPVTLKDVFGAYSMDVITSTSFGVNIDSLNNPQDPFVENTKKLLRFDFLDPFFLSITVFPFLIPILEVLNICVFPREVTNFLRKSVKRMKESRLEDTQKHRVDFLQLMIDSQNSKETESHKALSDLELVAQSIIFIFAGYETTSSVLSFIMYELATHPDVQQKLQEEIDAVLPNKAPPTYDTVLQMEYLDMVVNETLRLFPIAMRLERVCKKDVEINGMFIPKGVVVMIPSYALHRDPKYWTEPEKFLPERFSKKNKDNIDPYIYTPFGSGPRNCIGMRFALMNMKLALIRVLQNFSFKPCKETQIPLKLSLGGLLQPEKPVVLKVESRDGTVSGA
# [18] = Lipophilicity, logD of the compound at pH 7.4; format: physicochemical; settings: buffer
# [19] = Genotoxicity in Salmonella typhimurium TA98 in absence of rat liver S9 fraction by Ames test; format: toxicity; settings: salmonella enterica subsp. enterica serovar typhimurium
# [20] = Aqueous solubility of compound at pH 7.4; format: physicochemical
# [21] = Toxicity in Sprague-Dawley rat assessed as apparent adverse effect at 20 to 60 mg/kg, po administered daily via gavage measured for 7 days; format: organism-based; settings: in vivo, 168 h, dose 20-60 mg/kg, time 7 day
# [22] = target: Cytochrome P450 2C9 (Homo sapiens, UniProt P11712); assay: Inhibition of CYP2C9 (unknown origin); format: ADME
# Cytochrome P450 2C9, sequence (P11712 whole entry): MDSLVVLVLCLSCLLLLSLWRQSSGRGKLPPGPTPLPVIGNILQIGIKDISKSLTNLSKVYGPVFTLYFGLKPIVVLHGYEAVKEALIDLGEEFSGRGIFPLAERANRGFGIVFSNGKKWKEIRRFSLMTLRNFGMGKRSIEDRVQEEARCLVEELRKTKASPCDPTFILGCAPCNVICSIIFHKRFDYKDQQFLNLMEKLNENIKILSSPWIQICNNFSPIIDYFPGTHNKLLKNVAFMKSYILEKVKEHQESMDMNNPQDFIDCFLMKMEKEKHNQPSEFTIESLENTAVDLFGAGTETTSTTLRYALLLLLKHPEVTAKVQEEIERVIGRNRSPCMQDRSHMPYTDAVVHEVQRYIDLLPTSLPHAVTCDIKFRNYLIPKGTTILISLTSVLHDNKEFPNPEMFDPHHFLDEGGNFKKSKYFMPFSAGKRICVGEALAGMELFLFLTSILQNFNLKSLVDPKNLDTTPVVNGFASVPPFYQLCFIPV
# [23] = target: T3, 5-hydroxytryptamine receptor 2C (Homo sapiens, UniProt P28335); assay: Displacement of [3H]- Mesulergine from human 5-HT2C receptor at 300 nM incubated for 1 hr by microbeta2 beta-counter analysis
# T3 sequence (P28335 whole entry): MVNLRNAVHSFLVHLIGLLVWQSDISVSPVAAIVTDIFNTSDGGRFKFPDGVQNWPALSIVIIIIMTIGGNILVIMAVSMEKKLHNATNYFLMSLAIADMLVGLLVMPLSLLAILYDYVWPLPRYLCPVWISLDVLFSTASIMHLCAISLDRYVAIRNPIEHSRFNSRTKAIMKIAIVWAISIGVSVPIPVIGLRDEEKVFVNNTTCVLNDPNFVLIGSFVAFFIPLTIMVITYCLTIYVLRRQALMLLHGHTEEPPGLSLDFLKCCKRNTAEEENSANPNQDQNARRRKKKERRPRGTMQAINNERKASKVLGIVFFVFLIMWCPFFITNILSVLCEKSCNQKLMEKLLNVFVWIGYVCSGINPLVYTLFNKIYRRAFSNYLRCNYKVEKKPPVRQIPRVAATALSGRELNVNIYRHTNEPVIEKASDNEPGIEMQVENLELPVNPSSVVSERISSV
# [24] = target: 5-hydroxytryptamine receptor 2B (Homo sapiens, UniProt P41595); assay: Displacement of [3H]-LSD from human 5-HT2B receptor at 25 uM incubated for 1 hr by microbeta2 beta-counter analysis
# 5-hydroxytryptamine receptor 2B, sequence (P41595 whole entry): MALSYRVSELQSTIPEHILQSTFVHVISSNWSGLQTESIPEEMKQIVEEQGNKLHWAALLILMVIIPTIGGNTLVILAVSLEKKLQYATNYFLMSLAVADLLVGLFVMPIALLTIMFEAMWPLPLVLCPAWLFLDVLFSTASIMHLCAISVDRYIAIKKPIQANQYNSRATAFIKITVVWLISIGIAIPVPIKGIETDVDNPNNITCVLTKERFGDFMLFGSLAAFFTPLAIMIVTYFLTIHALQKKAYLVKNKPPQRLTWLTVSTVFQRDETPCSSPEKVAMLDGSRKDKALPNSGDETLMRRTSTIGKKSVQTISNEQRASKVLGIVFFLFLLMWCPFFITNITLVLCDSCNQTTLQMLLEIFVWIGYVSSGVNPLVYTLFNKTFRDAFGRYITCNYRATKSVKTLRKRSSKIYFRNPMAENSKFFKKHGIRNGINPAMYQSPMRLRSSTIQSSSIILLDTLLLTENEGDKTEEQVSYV
# [25] = Plasma protein binding in rat at 10 uM; format: ADME, cell-free; settings: read-out: PPB (converted)
# [26] = Metabolic stability in Sprague-Dawley rat liver microsomes assessed as half life at 100 uM preincubated for 10 mins followed by NADPH addition by LC/MS analysis; format: ADME, Microsome
# [27] = target: Cytochrome P450 2C19 (Homo sapiens, UniProt P33261); assay: Inhibition of CYP2C19 (unknown origin); format: ADME
# Cytochrome P450 2C19, sequence (P33261 whole entry): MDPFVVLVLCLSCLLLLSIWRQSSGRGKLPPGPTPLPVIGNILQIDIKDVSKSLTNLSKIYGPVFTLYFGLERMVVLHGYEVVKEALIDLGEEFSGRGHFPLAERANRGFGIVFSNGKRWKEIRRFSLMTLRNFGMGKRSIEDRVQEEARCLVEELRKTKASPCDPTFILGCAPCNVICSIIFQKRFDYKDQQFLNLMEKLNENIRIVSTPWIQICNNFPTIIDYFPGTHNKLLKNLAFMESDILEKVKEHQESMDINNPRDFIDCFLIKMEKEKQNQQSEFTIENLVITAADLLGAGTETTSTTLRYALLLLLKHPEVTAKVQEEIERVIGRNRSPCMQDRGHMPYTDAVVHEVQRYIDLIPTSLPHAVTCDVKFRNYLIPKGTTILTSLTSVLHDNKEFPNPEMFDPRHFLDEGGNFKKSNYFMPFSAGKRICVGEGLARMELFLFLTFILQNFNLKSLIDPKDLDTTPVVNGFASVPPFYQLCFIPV
# [28] = Dissociation constant, pKa of the compound; format: physicochemical
# [29] = Genotoxicity in Salmonella typhimurium TA102 in presence of rat liver S9 fraction by Ames test; format: toxicity, subcellular; settings: salmonella enterica subsp. enterica serovar typhimurium
# [30] = Metabolic stability in Sprague-Dawley rat liver microsomes assessed as compound remaining at 100 uM […] followed by NADPH addition by LC/MS analysis; format: ADME, Microsome; settings: read-out: Stability
# [31] = Genotoxicity in Salmonella typhimurium TA100 in absence of rat liver S9 fraction by Ames test; format: toxicity; settings: salmonella enterica subsp. enterica serovar typhimurium
# [32] = Genotoxicity in Salmonella typhimurium TA100 in presence of rat liver S9 fraction by Ames test; format: toxicity, subcellular; settings: salmonella enterica subsp. enterica serovar typhimurium
# [33] = Metabolic stability in human liver microsomes assessed as compound remaining at 100 uM […] followed by NADPH addition by LC/MS analysis; format: ADME, Microsome; settings: read-out: Stability
# [34] = Drug distribution in Sprague-Dawley rat brain at 6 micromol/kg administered via gavage measured after 0.5 hr by LC-MS/MS analysis; format: ADME, tissue-based; settings: in vivo, po, dose 6 µmol/kg
# [35] = Metabolic stability in human liver microsomes assessed as intrinsic clearance at 100 uM preincubated for 10 mins followed by NADPH addition by LC/MS analysis; format: ADME, Microsome; settings: read-out: CLH
# [36] = Metabolic stability in dog liver microsomes assessed as compound remaining at 100 uM […] followed by NADPH addition by LC/MS analysis; format: ADME, Canis lupus familiaris, Microsome; settings: read-out: Stability
# [37] = Genotoxicity in Salmonella typhimurium TA1535 in presence of rat liver S9 fraction by Ames test; format: toxicity, subcellular; settings: salmonella enterica subsp. enterica serovar typhimurium
# [38] = Drug distribution in Sprague-Dawley rat brain at 6 micromol/kg administered via gavage measured after 2 hrs by LC-MS/MS analysis; format: ADME, tissue-based; settings: in vivo, po, dose 6 µmol/kg
# T1 sequence (P28223 whole entry): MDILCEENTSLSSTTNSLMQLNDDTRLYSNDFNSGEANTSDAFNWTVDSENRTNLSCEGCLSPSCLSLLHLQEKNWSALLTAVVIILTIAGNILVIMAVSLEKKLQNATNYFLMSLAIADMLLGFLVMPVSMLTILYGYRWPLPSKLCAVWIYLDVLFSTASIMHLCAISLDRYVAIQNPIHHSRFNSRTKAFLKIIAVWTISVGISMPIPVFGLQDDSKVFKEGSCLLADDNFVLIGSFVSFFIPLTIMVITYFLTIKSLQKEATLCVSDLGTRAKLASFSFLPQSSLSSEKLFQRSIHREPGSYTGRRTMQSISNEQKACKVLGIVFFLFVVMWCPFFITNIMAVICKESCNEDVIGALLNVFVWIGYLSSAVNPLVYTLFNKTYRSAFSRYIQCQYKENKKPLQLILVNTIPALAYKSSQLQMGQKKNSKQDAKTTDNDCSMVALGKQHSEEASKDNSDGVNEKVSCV
# Cytochrome P450 2D6, sequence (P10635 whole entry): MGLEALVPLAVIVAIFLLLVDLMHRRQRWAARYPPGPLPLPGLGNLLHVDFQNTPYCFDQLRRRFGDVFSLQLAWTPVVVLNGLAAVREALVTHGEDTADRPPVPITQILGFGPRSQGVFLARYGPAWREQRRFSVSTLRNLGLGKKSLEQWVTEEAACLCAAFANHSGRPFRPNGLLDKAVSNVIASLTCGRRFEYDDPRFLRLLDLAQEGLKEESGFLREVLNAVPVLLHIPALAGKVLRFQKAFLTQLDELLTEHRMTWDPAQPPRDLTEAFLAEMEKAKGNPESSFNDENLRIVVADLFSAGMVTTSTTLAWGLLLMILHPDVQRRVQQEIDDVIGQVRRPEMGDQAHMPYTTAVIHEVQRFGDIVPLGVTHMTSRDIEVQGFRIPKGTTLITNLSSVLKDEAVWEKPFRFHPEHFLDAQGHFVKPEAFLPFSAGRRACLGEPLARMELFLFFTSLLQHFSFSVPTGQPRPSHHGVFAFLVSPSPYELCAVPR
smiles,measurement,setting,value
CN1CCC(N(Cc2ccc(F)cn2)C(=O)NCc2ccc(OCC(F)(F)F)cc2)CC1,IC50,[1],> 100 µM
same,IC50,[2],0.0021 µM
same,Ki,[3],0.0002 µM
same,Activity,[4],Non-Toxic
same,Activity,[5],Non-Toxic
same,fraction unbound at 10 µM,[6],0.383
same,Ct,[7],100 nmol/kg
same,CLint scaled at 100 µM,[8],34.1 mL/min/kg
same,half-life at 100 µM,[9],> 3.1 h
same,fraction unbound at 10 µM,[10],0.309
same,Activity,[11],Non-Toxic
same,Activity,[12],Non-Toxic
same,Activity,[13],Non-Toxic
same,IC50,[14],8.5 µM
same,IC50,[15],1.1 µM
same,Activity,[16],Non-Toxic
same,IC50,[17],> 100 µM
same,logD,[18],1.97
same,Activity,[19],Non-Toxic
same,solubility,[20],710 µg/mL
same,Activity,[21],Non-Toxic
same,IC50,[22],> 100 µM
same,Ki,[23],0.002 µM
same,Ki,[24],0.139 µM
same,fraction unbound at 10 µM,[25],0.418
same,half-life at 100 µM,[26],1.72 h
same,IC50,[27],62.9 µM
same,pKa,[28],8.51
same,Activity,[29],Non-Toxic
same,remaining at 100 µM,[30],66.5%
same,Activity,[31],Non-Toxic
same,Activity,[32],Non-Toxic
same,remaining at 100 µM,[33],89.2%
same,Ct,[34],120 nmol/kg
same,CLint scaled at 100 µM,[35],< 6.7 mL/min/kg
same,remaining at 100 µM,[36],76.4%
same,Activity,[37],Non-Toxic
same,Ct,[38],164 nmol/kg

# — ChEMBL document CHEMBL5131502, “Improving the treatment of Parkinson's disease: Structure-based development of novel 5-HT2A receptor antagonists/inverse agonists” (Eur J Med Chem, 2022)
